# Results as given in patent US20240342320A1, “POLYPEPTIDE TARGETING INTEGRIN ALPHA 6 AND USE THEREOF” (GUANGZHOU GENBIONOVA MEDICAL TECHNOLOGY CO., LTD., priority 2021, published 2024).
# Read-outs that look alike come from different tables or passages of the source. Positions of bridges follow the written chain, without caps; N, C: chain ends. Non-standard residues stand in square brackets, D forms with d. Residues, ends and D or L forms follow the SMILES beside them. Primed or numbered codes have the meaning given here. No end group written: not given here. FITC′ = not defined here; PEG4′ = not defined here
# What was measured:
# Hep3B cells [1] = test: Affinity of RD/RD2 to Hep3B cells (no integrin α6 expression) by flow cytometry; type: cell-based, human; conditions: FITC probes, 37° C., 2 hours
# Description: (§1) The expression of integrin α6 and β4 in human hepatoma cells HCCLM3, human hepatoma cells Huh-7, human hepatoma cells Hep3B, human nasopharyngeal carcinoma cells S18 and human breast cancer cells MDA-MB-231 were detected by flow cytometry. […] Integrin β4 is expressed in HCCLM3, S18 and MDA-MB-231 cells (FIG. 3F, FIG. 3G, FIG. 3I, FIG. 3J). […] Each cell had 3 duplicate wells. • 2) 2 μl of 1 mM RWYD-PEG4-K-FITC (structural formula shown in FIG. 1B, referred to as RD) or CRWYDENAC-PEG4-K-FITC (referred to as RWY) was added into cells, mixed well, and incubate in an incubator at 37° C. for 2 hours. • 3) The culture medium containing polypeptides was absorbed and removed, the cells were washed with PBS for 3 times, 500 μl/time. • 4) The cells were digested with trypsin, resuspended with medium and centrifuged at 300 g for 5 minutes. • 5) The supernatant was discarded and cell precipitation was preserved, and the cells were resuspended with 500 μl saline and placed into the flow tube. • 6) The FITC channel was detected by flow machine and the results were analyzed by CytExpert.
# (§2) RWYD-PEG4 forms dimers or polyploids via lysine (K) ligations. Flow cytometry was used to detect expression of integrin α6 in tumor cells. […] The specific operation of affinity assay of tumor cells to RD2 is similar to that of “affinity assay of tumor cells to RD”.
# Hep3B cells [2] = test: Flow cytometry affinity assay to Hep3B cells that do not express integrin α6; type: cell-based, human; conditions: FITC flow cytometry; Hep3B does not express integrin α6
# Description: as §1, §2
# [3] = test system: tumor cells with high integrin α6 expression; test: Flow cytometry affinity assay to tumor cells with high integrin α6 expression; type: cell-based, human
# Description: as §1, §2
# integrin α6β4 [4] = target: T1, integrin α6β4 (Homo sapiens, UniProt P23229); test: Affinity between polypeptide mutants and integrin α6β4 by microscale thermophoresis (MST); type: binding
# T1 sequence (P23229 24-938 limits assumed): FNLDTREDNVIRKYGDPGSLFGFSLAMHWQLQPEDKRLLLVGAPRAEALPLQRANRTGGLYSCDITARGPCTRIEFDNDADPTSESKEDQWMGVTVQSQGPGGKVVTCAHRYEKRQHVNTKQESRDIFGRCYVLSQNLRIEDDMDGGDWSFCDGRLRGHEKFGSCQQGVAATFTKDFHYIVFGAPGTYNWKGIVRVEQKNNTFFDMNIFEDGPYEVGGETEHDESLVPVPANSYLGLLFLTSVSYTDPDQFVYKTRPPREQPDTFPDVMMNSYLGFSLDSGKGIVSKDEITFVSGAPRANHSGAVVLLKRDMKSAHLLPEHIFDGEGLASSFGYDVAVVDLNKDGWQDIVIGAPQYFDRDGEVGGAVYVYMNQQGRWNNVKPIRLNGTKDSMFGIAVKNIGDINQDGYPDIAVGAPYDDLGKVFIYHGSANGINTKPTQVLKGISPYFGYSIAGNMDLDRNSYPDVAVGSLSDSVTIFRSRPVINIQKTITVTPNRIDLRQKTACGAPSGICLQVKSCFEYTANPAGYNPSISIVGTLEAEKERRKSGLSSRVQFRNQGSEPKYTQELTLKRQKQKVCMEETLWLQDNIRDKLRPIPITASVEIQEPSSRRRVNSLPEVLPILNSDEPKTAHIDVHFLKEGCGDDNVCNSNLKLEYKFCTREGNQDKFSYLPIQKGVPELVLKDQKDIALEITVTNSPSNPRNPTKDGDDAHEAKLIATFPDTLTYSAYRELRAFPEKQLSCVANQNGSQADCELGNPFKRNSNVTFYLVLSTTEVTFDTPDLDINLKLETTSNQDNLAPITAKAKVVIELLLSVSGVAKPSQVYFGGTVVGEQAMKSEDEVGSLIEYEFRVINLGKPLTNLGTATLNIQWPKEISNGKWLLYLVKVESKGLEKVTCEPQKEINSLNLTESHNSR
# T1 sequence (P23229 942-1050 limits assumed): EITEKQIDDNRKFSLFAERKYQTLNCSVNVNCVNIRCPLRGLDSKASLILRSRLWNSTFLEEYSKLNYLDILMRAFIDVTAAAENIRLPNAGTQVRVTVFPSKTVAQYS
# T1 sequence (P16144 28-710 partner limits assumed): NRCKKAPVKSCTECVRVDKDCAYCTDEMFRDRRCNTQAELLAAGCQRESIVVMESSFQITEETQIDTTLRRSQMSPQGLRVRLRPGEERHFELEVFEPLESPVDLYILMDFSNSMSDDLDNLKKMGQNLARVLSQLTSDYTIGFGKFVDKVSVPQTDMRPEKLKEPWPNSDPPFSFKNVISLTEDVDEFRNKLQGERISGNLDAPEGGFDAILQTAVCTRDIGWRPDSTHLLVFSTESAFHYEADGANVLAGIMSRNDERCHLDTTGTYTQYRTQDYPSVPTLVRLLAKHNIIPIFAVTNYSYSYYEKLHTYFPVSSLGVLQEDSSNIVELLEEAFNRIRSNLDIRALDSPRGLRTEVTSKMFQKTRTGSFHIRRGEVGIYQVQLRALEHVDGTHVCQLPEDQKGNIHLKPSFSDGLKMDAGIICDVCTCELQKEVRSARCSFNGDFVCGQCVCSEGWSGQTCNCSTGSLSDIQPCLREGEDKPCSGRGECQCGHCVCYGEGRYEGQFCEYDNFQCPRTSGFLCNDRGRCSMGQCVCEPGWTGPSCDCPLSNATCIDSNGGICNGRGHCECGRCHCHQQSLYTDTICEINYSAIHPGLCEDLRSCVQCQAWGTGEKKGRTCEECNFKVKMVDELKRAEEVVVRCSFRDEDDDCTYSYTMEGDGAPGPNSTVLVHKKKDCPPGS
# Description: (§3) The affinity between these 18 polypeptides and integrin α6β4 was detected by microscale thermophoresis (MST) method as follows: • 1) Integrin α6β4 protein was dissolved to 800 nM, and polypeptide was dissolved to 100 μM. • 2) A RED-tris-NTA second-generation dye was diluted to 100 nM by using the MO series RED-tris-NTA protein labeling kit. • 3) 100 μl α6β4 protein was mixed with 50 μl dye and incubated at room temperature for 30 min, so that the α6β4 protein binds to the dye. • 4) 10 μl polypeptide was transferred into a PCR tube, and was diluted with PBST (containing 0.05% Tween 20) at a ratio of 1:1 to 16 gradients of concentrations. • 5) 3 μl protein/dye mixture was transferred into a PCR tube, 3 μl of 16 different concentrations of polypeptides was respectively added and mixed well. • 6) The mixture was absorbed by capillary and loaded on machine (instrument model Monolith NT.115) to assay, parameters were set as 80% LED/excitation power and medium MST power. • 7) MO. Affinity Analysis software was used to calculate the equilibrium dissociation constant KD between α6β4 protein and polypeptide by KD fitting mode.
# [5] = test system: Hep3B subcutaneous tumors without expression of integrin α6; test: Near infrared imaging, Hep3B subcutaneous tumors; type: in vivo, mice
# [6] = test system: HCCLM3 subcutaneous tumors with high integrin α6 expression; test: Near infrared imaging in HCCLM3 subcutaneous tumor bearing mice; type: in vivo; conditions: 2 μl of 1 mM, tail vein, 24 hours
# Description: (§4) In the near infrared imaging of small animals, a 2 μl of 1 mM fluorescent probe RWYD-PEG4-K(ICG)-K(NOTA) (structural formula shown in FIG. 1C) was injected into the tail vein of HCCLM3 subcutaneous tumor bearing mice. After 24 hours of internal circulation, the distribution in the subcutaneous tumor bearing mice was observed.
# [7] = test system: tumor cells with high integrin α6 expression (HCCLM3, Huh-7, S18, MDA-MB-231; also HT29, KYSE30, SW620, SW1990 for RD2); test: Affinity of RD/RD2 to tumor cells with high integrin α6 expression by flow cytometry; type: cell-based, human; conditions: FITC probes, 37° C., 2 hours
# Description: as §1, §2
# integrin α6β1 = integrin α6β1 (Homo sapiens, UniProt P05556+P23229); test: MST affinity to integrin α6β1; type: binding
# integrin α6β1, sequence (P05556 21-728 partner limits assumed, one chain of several): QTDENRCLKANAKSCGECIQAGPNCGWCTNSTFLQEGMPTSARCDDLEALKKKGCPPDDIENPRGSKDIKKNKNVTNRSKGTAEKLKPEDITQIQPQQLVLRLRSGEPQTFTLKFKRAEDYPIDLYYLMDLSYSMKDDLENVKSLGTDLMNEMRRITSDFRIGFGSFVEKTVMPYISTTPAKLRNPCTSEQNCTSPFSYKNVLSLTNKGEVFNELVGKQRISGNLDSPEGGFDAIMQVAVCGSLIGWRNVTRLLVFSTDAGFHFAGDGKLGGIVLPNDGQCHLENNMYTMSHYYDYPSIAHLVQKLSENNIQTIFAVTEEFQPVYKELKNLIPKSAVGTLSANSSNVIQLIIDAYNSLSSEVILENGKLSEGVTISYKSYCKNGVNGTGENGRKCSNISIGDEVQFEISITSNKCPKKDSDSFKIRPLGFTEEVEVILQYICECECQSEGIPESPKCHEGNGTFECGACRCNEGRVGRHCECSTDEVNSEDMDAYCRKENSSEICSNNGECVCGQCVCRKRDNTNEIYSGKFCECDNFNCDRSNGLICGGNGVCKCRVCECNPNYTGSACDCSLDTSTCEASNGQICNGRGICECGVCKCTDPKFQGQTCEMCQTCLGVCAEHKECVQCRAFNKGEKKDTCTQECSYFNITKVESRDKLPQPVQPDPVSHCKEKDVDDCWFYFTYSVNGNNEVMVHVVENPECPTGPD
# integrin α6β4 [8] = target: T2, integrin α6β4 (Homo sapiens, UniProt P16144+P23229); test: Microscale thermophoresis (MST) affinity to integrin α6β4; type: binding; conditions: MST
# T2 sequence (P23229 24-1050 limits assumed): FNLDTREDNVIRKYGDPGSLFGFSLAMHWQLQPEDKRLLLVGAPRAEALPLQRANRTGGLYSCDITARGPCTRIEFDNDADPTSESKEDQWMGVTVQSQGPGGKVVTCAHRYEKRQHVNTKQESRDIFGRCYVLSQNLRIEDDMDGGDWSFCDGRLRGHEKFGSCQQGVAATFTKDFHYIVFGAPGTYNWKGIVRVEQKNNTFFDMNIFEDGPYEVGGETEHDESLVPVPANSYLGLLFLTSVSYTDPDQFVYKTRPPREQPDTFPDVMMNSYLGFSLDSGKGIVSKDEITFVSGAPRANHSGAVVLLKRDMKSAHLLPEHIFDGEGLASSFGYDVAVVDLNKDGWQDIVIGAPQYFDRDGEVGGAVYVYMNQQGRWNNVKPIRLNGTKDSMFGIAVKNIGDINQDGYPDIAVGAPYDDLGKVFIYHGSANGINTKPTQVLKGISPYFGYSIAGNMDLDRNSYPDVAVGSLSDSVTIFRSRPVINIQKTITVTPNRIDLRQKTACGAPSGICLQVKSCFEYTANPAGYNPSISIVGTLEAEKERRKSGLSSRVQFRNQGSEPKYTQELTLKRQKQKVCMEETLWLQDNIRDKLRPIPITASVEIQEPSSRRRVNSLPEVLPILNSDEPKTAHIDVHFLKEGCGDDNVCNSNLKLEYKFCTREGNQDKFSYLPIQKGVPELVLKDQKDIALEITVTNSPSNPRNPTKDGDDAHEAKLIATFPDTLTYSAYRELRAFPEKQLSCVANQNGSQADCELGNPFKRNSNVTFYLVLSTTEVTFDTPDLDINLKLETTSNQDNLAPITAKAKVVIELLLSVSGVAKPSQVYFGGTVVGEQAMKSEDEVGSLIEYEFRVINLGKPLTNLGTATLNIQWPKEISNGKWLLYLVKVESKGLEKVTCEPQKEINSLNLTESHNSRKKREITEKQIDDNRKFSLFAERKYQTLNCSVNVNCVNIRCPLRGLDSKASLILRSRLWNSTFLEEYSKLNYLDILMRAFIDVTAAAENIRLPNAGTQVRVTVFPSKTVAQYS
# T2 sequence (P16144 28-710 partner limits assumed): T1 sequence (P16144 28-710 partner limits assumed)
# Description: as §3
# integrin α6β4 [9] = target: T3, integrin α6β4 (Homo sapiens, UniProt P23229); test: as above; type: binding
# T3 sequence (P23229 24-1050 limits assumed): T2 sequence (P23229 24-1050 limits assumed)
# T3 sequence (P16144 28-710 partner limits assumed): T1 sequence (P16144 28-710 partner limits assumed)
# Description: as §3
# [10] = test system: Hep3B subcutaneous tumors without expression of integrin α6; test: Near infrared imaging of Hep3B subcutaneous tumors; type: in vivo, mice
# [11] = test system: HCCLM3 subcutaneous tumors with high integrin α6 expression; test: Near infrared imaging of HCCLM3 subcutaneous tumor bearing mice; type: in vivo; conditions: tail vein, 24 hours
# Description: as §4
molecule,measurement,setting,value
CRWYDENAC-PEG4-K-FITC (CRWYDENAC[PEG4′]K-{FITC′}; disulfide 1-9 (inferred)) [reference compound] [listing 1 of 2 here],affinity to Hep3B cells,Hep3B cells [1],consistent with Hep3B cells
CRWYDENAC-PEG4-K-FITC (CRWYDENAC[PEG4′]K-{FITC′}; disulfide 1-9 (inferred)) [reference compound] [listing 2 of 2 here],"Affinity to Hep3B cells, RD versus RWY",Hep3B cells [2],consistent
(RWYD-PEG4)2-K-K-FITC (not fully specified) [FITC-labeled RWYD dimer],Affinity to tumor cells with high integrin α6 expression compared with RWYD-PEG4-K-FITC,"[3]; HCCLM3, S18, HT29, Huh7, MDA-MB-231, KYSE30, SW620, SW1990",stronger affinity
(RWYD-PEG4)2-K-K-NOTA (not fully specified),Kd,integrin α6β4 [4],64.8 ± 28.2 nM
same,affinity increase of RWYD-PEG4 dimer over RWYD-PEG4-K-NOTA,integrin α6β4 [4]; NOTA conjugates,about 10 times
RWYD-PEG4-K(ICG)-K(NOTA) [listing 1 of 2 here],"tumor uptake, near infrared imaging",[5],not high taken up by Hep3B subcutaneous tumors
same,"tumor uptake, near infrared imaging",[6],high taken up by HCCLM3 subcutaneous tumors
RWYD-PEG4-K-FITC [RD] [listing 1 of 2 here],"Affinity to Hep3B cells, RD versus RWY",Hep3B cells [2],consistent
same,Affinity to tumor cells with high integrin α6 expression compared with RWY,"[3]; FITC flow cytometry, HCCLM3, Huh7, S18, MDA-MB-231, 37° C., 2 hours",stronger affinity
RWYD-PEG4-K-FITC [RD] [listing 2 of 2 here],affinity to tumor cells,[7],stronger affinity to tumor cells with high integrin α6 expression than RWY
same,affinity to Hep3B cells,Hep3B cells [1],consistent with Hep3B cells
(RWYD-PEG4)2-K-K-FITC (not fully specified) [RD2],affinity to tumor cells,[7],stronger affinity to tumor cells with high integrin α6 expression
"N=C(N)NCCC[C@H](N)C(=O)N[C@@H](Cc1c[nH]c2ccccc12)C(=O)N[C@@H](Cc1ccc(O)cc1)C(=O)N[C@@H](CC(=O)O)C(=O)O [P15, RWYD] (H-RWYD-OH; N-terminus and C-terminus assumed)",Kd,integrin α6β1,53.1 ± 28.7 nM
same,Kd,"integrin α6β4 [8]; integrin α6β4, determination 1, read-out: KD (um) 1",20 nM
same,Kd,"integrin α6β4 [8]; integrin α6β4, determination 3, read-out: KD (um) 3",26 nM
same,Kd,"integrin α6β4 [8]; integrin α6β4, mean of 3, read-out: KD Mean value (μm)",20 nM
same,Kd,"integrin α6β4 [8]; integrin α6β4, read-out: KD",21.8 ± 3.86 nM
same,Affinity increase relative to CRWYDENAC,integrin α6β4 [9]; integrin α6β4,327 times
same,Affinity relative to RWY,integrin α6β4 [9]; relative to CRWYDENAC (RWY) = 1.00,326.875
RWYD-PEG4-K(ICG)-K(NOTA) [listing 2 of 2 here],"tumor uptake, near infrared imaging",[10],not high taken up
same,"tumor uptake, near infrared imaging",[11],high taken up
